Experimental findings from patent US10793522B2, “Sulfonamides as inhibitors of the uptake of extracellular citrate” (Boehringer Ingelheim International GmbH, priority 2016, dated 2020) are described below.

SMILES strings stand for the structures. pIC50: −log10 of the molar value.

The target of the assay is T1, human GlyT2 (Homo sapiens, UniProt Q9Y345).
T1 construct: host or cells: HEK293 (HEK293-hGlyT2), cDNA sub-cloned into pcDNA3.1zeo
T1 sequence (Q9Y345 1-797): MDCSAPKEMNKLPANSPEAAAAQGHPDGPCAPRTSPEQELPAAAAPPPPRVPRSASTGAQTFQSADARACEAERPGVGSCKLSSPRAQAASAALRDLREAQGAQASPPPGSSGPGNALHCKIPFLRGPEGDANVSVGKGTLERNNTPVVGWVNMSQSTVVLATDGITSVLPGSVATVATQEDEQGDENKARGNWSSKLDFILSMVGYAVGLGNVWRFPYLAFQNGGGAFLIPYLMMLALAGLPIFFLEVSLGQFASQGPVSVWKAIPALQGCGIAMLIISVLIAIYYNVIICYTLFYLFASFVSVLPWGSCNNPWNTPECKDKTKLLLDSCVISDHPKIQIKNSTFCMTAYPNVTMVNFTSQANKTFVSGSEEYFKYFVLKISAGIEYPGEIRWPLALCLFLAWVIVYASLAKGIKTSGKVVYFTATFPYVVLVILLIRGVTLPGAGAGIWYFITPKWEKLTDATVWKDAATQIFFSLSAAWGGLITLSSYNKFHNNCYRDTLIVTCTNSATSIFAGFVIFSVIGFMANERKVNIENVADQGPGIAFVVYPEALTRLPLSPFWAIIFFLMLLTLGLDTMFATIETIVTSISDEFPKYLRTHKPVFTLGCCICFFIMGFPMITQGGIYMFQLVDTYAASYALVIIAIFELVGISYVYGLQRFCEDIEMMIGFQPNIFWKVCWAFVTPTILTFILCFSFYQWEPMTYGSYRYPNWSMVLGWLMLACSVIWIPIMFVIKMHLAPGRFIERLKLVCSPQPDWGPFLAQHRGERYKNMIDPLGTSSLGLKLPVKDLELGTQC
As to the kind of experiment: Recombinant human GlyT2/3H-glycine uptake assay. It counts as cell-based. The conditions noted are these: HEK293 cells over-expressing human GlyT2; Cytostar-T; 3H-glycine 100 nM; 2 hours. The source says:
(6) Recombinant Human GlyT2/^3H-Glycine Uptake Assay
The human embryonic kidney 293 cell clone (HEK293-hGlyT2) over-expressing the human GlyT2 transporter was generated (the plasmid pCMV6-XL5-hGlyT2 containing the cDNA coding for the human GlyT2 transporter was obtained from Origene, the cDNA for GlyT2 was taken from this plasmid and sub-cloned into pcDNA3.1zeo from Invitrogen).
Human embryonic kidney 293 (HEK 293) cells are used that stably over-express the human GlyT2 […] which is responsible for the uptake of glycine into these cells.
The uptake of ^3H-glycine into the HEK 293 hGlyT2 cells is monitored using the Cytostar-T assay. This assay format is based on the imported radioactive glycine brought into proximity with the scintillant contained within the base of the plate by virtue of the biological processes within the cells. The radioactive decay is converted to a light signal based on the integration of the scintillation matrix into the assay plate.
Method: ^3H-Glycine Uptake Assay
The hGlyT2 over-expressing HEK 293 cells are cultivated in cell culture medium (DMEM+10% fetal calf serum+100 μg/mL Zeocin). For the assay, the medium of the 90% confluent cultures is removed and the cells are washed with DPBS. The cells are detached by the addition of 2 mL AccuMax and resuspended in 10 mL culture medium. The cell suspension is centrifuged at 1000 U/min for 5 min, the supernatant is removed and cells resuspended in expression medium (MEM (medium without glycine)+10% fetal calf serum) without glycine to 200,000 cells/mL and distributed into the Cytostar-T Scintillating 96-well Microplates (40,000 cells/well; 200 μl/well). The lid covered MTPs are then incubated for 24 hours at 37° C.; 5% CO2.
The following day, the cell plates are washed once with 200 μL HBSS/Ala buffer (HBSS 10× (+Ca, +Mg) with 5 mM Alanine adjusted to pH 7.4 with NaOH) following a 1 h incubation at 37° C.; 5% CO2, and subsequently 100 μL/well of HBSS/Ala containing 1.2× the concentration of compound in 1.2% DMSO (test range final: 100 μM-100 nM) incubated for 20 min at 37° C. Following the addition of 20 μL/well ^3H-glycine in HBSS/Ala (final ^3H-glycine concentration 100 nM) and an incubation for 2 hours at 37° C., the assay plate is placed into the Topcount NXT HTS and the signal is recorded.
The IC50 values of the compounds are calculated in IDBS XLfit by sigmoidal dose-response (variable slope).
Consider `O=C(NCc1ccccc1F)C1CCN(S(=O)(=O)c2cc(Cl)cc(Cl)c2)CC1` [(I-2)], for which the negative-log IC50 (pIC50) is below 4.00.
Take `O=C(NCc1ccc(Cl)cc1)C1CCN(S(=O)(=O)c2cc(Cl)cc(Cl)c2)CC1` [(I-5)]: the pIC50 was below 4.00.
For the compound `O=C(NCc1ccc(F)cc1)C1CCN(S(=O)(=O)c2cc(Cl)cc(Cl)c2)CC1` [(I-10)], the negative-log IC50 (pIC50) is below 4.00.
As to `O=C(NCc1ccccn1)C1CCN(S(=O)(=O)c2cc(Cl)cc(Cl)c2)CC1` [(I-11)], the negative-log IC50 (pIC50) was below 4.00.
The same measure for `Cc1ccc(CNC(=O)C2CCN(S(=O)(=O)c3cc(Cl)cc(Cl)c3)CC2)nc1` [(I-15)]: below 4.00; for `O=C(NCc1ccc(F)cn1)C1CCN(S(=O)(=O)c2cc(Cl)cc(Cl)c2)CC1` [(I-20)]: below 4.15; for `Cc1cnc(CNC(=O)C2CCN(S(=O)(=O)c3cc(Cl)cc(Cl)c3)CC2)s1` [(I-27)]: below 4.00.
For `CCOc1cc(Cl)cc(S(=O)(=O)N2CCC(C(=O)NCc3nccs3)CC2)c1` [(I-49)], the pIC50 is below 4.00.
Consider `Cc1cc(Br)cc(S(=O)(=O)N2CCC(C(=O)NCc3ccccn3)CC2)c1` [(I-61)], for which the pIC50 is below 4.00.
Take `N#Cc1ccc(CNC(=O)C2CCN(S(=O)(=O)c3cc(Cl)cc(Cl)c3)CC2)cc1` [Example (I-1)]: the pIC50 is below 4.00.
